Assays:
[1] = Liver microsome stability assay; assay type: in vitro ADME; details: rat liver microsomes, 10 μM, LC/MS
Procedure: FIG. 4. Liver Microsome Stability Assay. Compounds (10 μM) incubated with liver microsomes for 3 h and quenched with MeCN containing internal standard, analyzed by LC/MS (280 nm). Next, the metabolic stability of the compounds was evaluated in rat liver microsomes. The compounds were evaluated for 3 hours at 10 μM, and the metabolites were observed by LC/MS.

mice = experiment: Assessment of toxicity in vivo; details: mice; scale 0 to 3, or time of death
Text: The level of toxicity was rated on a scale of 0 (no observable adverse effect) to 3 (severe toxicity, almost fatal).

[2] = test system: U-937 cells (human lymphoma); experiment: 72 Hour IC50 cell death assay (sulforhodamine B); assay type: cell-based; details: read-out: U-937 72 h IC50 (μM), Table 1, U-937 cells, 72 h
Procedure: After the synthesis was complete, the biological activity of the compounds was evaluated.
U-937 human lymphoma cells were plated into the wells of 96 well plate at a density of 15,000 cells per well in 99 μL of RPMI 1640 growth media with 10% FBS and 1% pen-strep. To each well was added 1 μL of compound stock solutions in DMSO at varying concentrations such that the cells were treated with concentrations between 0 μM and 100 μM compound. Each concentration was tested in quintuplicate per plate. In each plate 5 wells received 20 μM doxorubicin as a positive death control and 5 wells received 1 μL of DMSO as a negative control.
After the 72 hour incubation period, the plates were analyzed using a Sulforhodamine B assay (Vichai and Kirtikara, Nat Protoc 2006, 1, 1112-1116). Specifically, to each well of the plate 25 μL of a 50% (w/v) solution of trichloroacetic acid in H2O was added and the plates were incubated for 4 hours at 4° C. The plates were then washed gently with water five times. The plates were allowed to air dry after which 100 μL of a 0.057% (w/v) Sulforhodamine B in a 1% (v/v) acetic acid solution was added to each well for 30 minutes at room temperature. The plates were gently washed 5 times with 1% (v/v) acetic acid and air dried. 200 μL of 10 mM Tris base (pH 10.4) was added to each well and the plates were placed on an orbital shaker for thirty minutes. The level of SRB was quantified fluorometrically at excitation and emission wavelengths 488 and 585 nm, respectively, on a Molecular Devices plate reader and the percent cell death calculated and normalized to the positive control (100% cell death) and the negative control (0% cell death). The percent cell death was averaged for each compound concentration and plotted as a function of compound concentration. The data were fit to a logistical dose response curve using Table curve 2D and the IC50 value was calculated. The experiment was repeated three times and the average of the calculated IC50 values was reported. The standard error of the mean (SEM) was determined and reported for the triplicate experiments.

Row | SMILES | RLM 3 h % Stability [1] [%] | Mouse Toxicity (mice) | IC50 [2] [µM]
1 | O=C(CN1CCN(C(=O)c2ccc(C(F)(F)F)cc2)CC1)N/N=C/c1cc(F)ccc1O [Compound 27, N′-(5-fluoro-2-hydroxybenzylidene)-2-(4-(4-(trifluoromethyl)benzoyl)piperazin-1-yl)acetohydrazide] | 87 ± 3 | 2 | 8.7 ± 0.5
2 | C=CCc1cc(F)cc(/C=N/NC(=O)CN2CCN(Cc3ccccc3)CC2)c1O [Compound 28, N′-(3-allyl-5-fluoro-2-hydroxybenzylidene)-2-(4-benzylpiperazin-1-yl)acetohydrazide] | 56 ± 1 | death <24 h (the mice died either within 24 hours of treatment) | 9.5 ± 0.9
3 | C=CCc1cc(F)cc(/C=N/NC(=O)CN2CCN(C(=O)c3ccc(F)cc3)CC2)c1O [Compound 34, N′-(3-allyl-5-fluoro-2-hydroxybenzylidene)-2-(4-(4-fluorobenzoyl)piperazin-1-yl)acetohydrazide] | 92 ± 3 | 3 | 8.5 ± 1.4
4 | CCCc1cccc(/C=N/NC(=O)CN2CCN(Cc3ccccc3)CC2)c1O [Compound 10, 2-(4-benzylpiperazin-1-yl)-N′-(2-hydroxy-3-propylbenzylidene)acetohydrazide] | 30 ± 1 | 2 | 9.6 ± 2.1
5 | C=CCc1cccc(/C=N/NC(=O)CN2CCN(Cc3ccc(F)cc3)CC2)c1O [Compound 6, N′-(3-allyl-2-hydroxybenzylidene)-2-(4-(4-fluorobenzyl)piperazin-1-yl)acetohydrazide] | 31 ± 1 | 3 | 11.1 ± 2.1
6 | C=CCc1cc(F)cc(/C=N/NC(=O)CN2CCN(C(=O)c3ccccc3)CC2)c1O [Compound 30, N′-(3-allyl-5-fluoro-2-hydroxybenzylidene)-2-(4-benzoylpiperazin-1-yl)acetohydrazide] | 93 ± 7 | 2 | 8.6 ± 2
7 | C=CCc1cccc(/C=N/NC(=O)CN2CCN(Cc3ccc(C#N)cc3)CC2)c1O [Compound 4, N′-(3-allyl-2-hydroxybenzylidene)-2-(4-(4-cyanobenzyl)piperazin-1-yl)acetohydrazide] | 48 ± 2 | 1 | 13.7 ± 0.9
8 | CCCc1cc(F)cc(/C=N/NC(=O)CN2CCN(C(=O)c3ccc(F)cc3)CC2)c1O [Compound 43, N′-(5-fluoro-2-hydroxy-3-propylbenzylidene)-2-(4-(4-fluorobenzoyl)piperazin-1-yl)acetohydrazide] | 67 ± 3 | 3 | 7.5 ± 1.4
9 | C=CCc1cccc(/C=N/NC(=O)CN2CCN(C(=O)c3ccc(F)cc3)CC2)c1O [Compound 7, N′-(3-allyl-2-hydroxybenzylidene)-2-(4-(4-fluorobenzoyl)piperazin-1-yl)acetohydrazide] | 86 ± 2 | 2 | 10.2 ± 1.7
10 | O=C(CN1CCN(Cc2ccccc2)CC1)N/N=C/c1cc(F)ccc1O [Compound 19, 2-(4-benzylpiperazin-1-yl)-N′-(5-fluoro-2-hydroxybenzylidene)acetohydrazide] | 64 ± 4 | 3 | 17 ± 1.4
11 | NS(=O)(=O)c1ccc(CN2CCN(CC(=O)N/N=C/c3cc(F)ccc3O)CC2)cc1 [Compound 20, 4-((4-(2-(2-(5-fluoro-2-hydroxybenzylidene)hydrazinyl)-2-oxoethyl)piperazin-1-yl)methyl)benzenesulfonamide] | 85 ± 6 | death >72 h (greater than 72 hours post-treatment) | 19.6 ± 3.8
12 | CCCc1cccc(/C=N/NC(=O)CN2CCN(Cc3ccc(F)cc3)CC2)c1O [Compound 15, 2-(4-(4-fluorobenzyl)piperazin-1-yl)-N′-(2-hydroxy-3-propylbenzylidene)acetohydrazide] | 24 ± 2 | death <24 h (the mice died either within 24 hours of treatment) | 10 ± 1.7
